Experimental data: patent publication US6187781A, “4-Tetrahydropyridylpyrimidine derivatives” (Taisho Pharmaceutical Co., Ltd., priority 1997, dated 2001)
pIC50: −log10 of the molar value. Where a name gives a salt, the structure may show the parent alone.

Target: T1, CRF receptor (Rattus norvegicus, UniProt P35353)
T1 sequence (P35353 24-415): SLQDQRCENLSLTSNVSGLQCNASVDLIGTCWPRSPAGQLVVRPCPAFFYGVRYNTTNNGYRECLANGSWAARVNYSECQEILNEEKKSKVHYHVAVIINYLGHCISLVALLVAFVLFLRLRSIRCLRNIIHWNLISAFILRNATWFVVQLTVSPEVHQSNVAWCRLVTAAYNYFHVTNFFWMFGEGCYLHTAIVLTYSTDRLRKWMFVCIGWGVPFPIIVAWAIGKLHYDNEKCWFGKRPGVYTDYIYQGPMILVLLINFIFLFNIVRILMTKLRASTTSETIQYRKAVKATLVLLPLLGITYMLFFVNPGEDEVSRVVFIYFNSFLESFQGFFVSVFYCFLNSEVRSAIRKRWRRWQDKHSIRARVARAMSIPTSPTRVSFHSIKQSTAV
Assay: CRF receptor Binding Assay ([125I]-CRF, rat frontal cortical membranes)
Conditions: 125I-CRF 0.2 nM; rat frontal cortical membranes 0.3 mg-protein/ml; 25° C., 2 hours; nonspecific binding with 1 μM CRF; read-out: IC50 (concentration of the test compound which 50% inhibits the 125I-CRF binding)

Row | Structure (SMILES) | pIC50
1 | CCN(c1nc(C)cc(N2CC=C(c3ccccc3)CC2)n1)c1ccc(C(C)C)cc1Br [Compound 1-01, 2-[N-(2-bromo-4-isopropylphenyl)-N-ethylamino]-4-(4-phenyl-1,2,3,6-tetrahydropyridin-1-yl)-6-methylpyrimidine hydrochloride] | 7.18
2 | C#CCN(c1nc(C)cc(N2CC=C(c3cccc(F)c3)CC2)n1)c1ccc(C(C)C)cc1Br [Compound 1-03] | 7.49
3 | CCN(c1nc(C)cc(N2CC=C(c3cccc(F)c3)CC2)n1)c1ccc(C(C)C)cc1I [Compound 1-05] | 7.56
4 | CCN(c1nc(C)cc(N2CC=C(c3cccc(F)c3)CC2)n1)c1ccc(C(C)C)cc1SC [Compound 1-06] | 7.98
5 | C#CCN(c1nc(C)cc(N2CC=C(c3cccc(F)c3)CC2)n1)c1ccc(C(C)C)cc1SC [Compound 1-08] | 7.05
6 | CCN(c1nc(C)cc(N2CC=C(c3cccc(F)c3)CC2)n1)c1c(C)cc(C)cc1C [Compound 1-14] | 7.13
7 | CCN(c1nc(C)cc(N2CC=C(c3ccc(F)c(F)c3)CC2)n1)c1ccc(C(C)C)cc1SC [Compound 1-21] | 7.09
8 | CCN(c1nc(C)cc(N2CC=C(c3cc(F)cc(F)c3)CC2)n1)c1ccc(C(C)C)cc1Br [Compound 1-25] | 7.33
9 | CCN(c1nc(C)cc(N2CC=C(c3cc(F)cc(F)c3)CC2)n1)c1ccc(C(C)C)cc1SC [Compound 1-26] | 7.45
10 | C#CCN(c1nc(C)cc(N2CC=C(c3cc(F)cc(F)c3)CC2)n1)c1ccc(C(C)C)cc1SC [Compound 1-27] | 7.90
11 | C#CCN(c1nc(C)cc(N2CC=C(c3cccc(Cl)c3)CC2)n1)c1ccc(C(C)C)cc1Br [Compound 1-31] | 7.02
12 | CCN(c1nc(C)cc(N2CC=C(c3cccc(Cl)c3)CC2)n1)c1ccc(C(C)C)cc1SC [Compound 1-34] | 7.70
13 | C#CCN(c1nc(C)cc(N2CC=C(c3cccc(Cl)c3)CC2)n1)c1ccc(C(C)C)cc1SC [Compound 1-36] | 7.29
14 | C#CCN(c1nc(C)cc(N2CC=C(c3ccc(Cl)cc3)CC2)n1)c1ccc(C(C)C)cc1Br [Compound 1-46] | 7.51
15 | CCN(c1nc(C)cc(N2CC=C(c3ccc(Cl)cc3)CC2)n1)c1ccc(C(C)C)cc1SC [Compound 1-51] | 7.67
16 | CCN(c1nc(C)cc(N2CC=C(c3ccc(Cl)cc3)CC2)n1)c1ccc(C2CCCC2)cc1SC [Compound 1-54] | 7.18
17 | CCN(c1nc(C)cc(N2CC=C(c3ccc(Cl)c(Cl)c3)CC2)n1)c1ccc(C(C)C)cc1Br [Compound 1-61] | 7.17
18 | CCN(c1nc(C)cc(N2CC=C(c3ccc(Cl)c(Cl)c3)CC2)n1)c1ccc(C(C)C)cc1SC [Compound 1-62] | 7.49
19 | CCN(c1nc(C)cc(N2CC=C(c3cccc(C(F)(F)F)c3)CC2)n1)c1ccc(C(C)C)cc1Br [Compound 1-66] | 7.33
20 | CCN(c1nc(C)cc(N2CC=C(c3cccc(C(F)(F)F)c3)CC2)n1)c1ccc(C(C)C)cc1SC [Compound 1-68] | 7.41
21 | CCN(c1nc(C)cc(N2CC=C(c3cccc(C(F)(F)F)c3)CC2)n1)c1c(C)cc(C)cc1C [Compound 1-71] | 7.25
22 | CCN(c1nc(C)cc(N2CC=C(c3cccs3)CC2)n1)c1ccc(C(C)C)cc1Br [Compound 1-78, 2-[N-(2-bromo-4-isopropylphenyl)-N-ethylamino]-4-[4-(thiophen-2-yl)-1,2,3,6-tetrahydropyridin-1-yl]-6-methylpyrimidine] | 7.28
23 | CCN(c1nc(C)cc(N2CC=C(c3ccco3)CC2)n1)c1ccc(C(C)C)cc1Br [Compound 1-79, 2-[N-(2-bromo-4-isopropylphenyl)-N-ethylamino]-4-[4-(furan-2-yl)-1,2,3,6-tetrahydropyridin-1-yl]-6-methylpyrimidine] | 7.35

More lines, now with the values ahead:

Row | pIC50 | Structure (SMILES)
24 | 7.66 | CCN(c1nc(C)cc(N2CC=C(c3cccc(F)c3)CC2)n1)c1ccc(C(C)C)cc1Br [Compound 1-02]
25 | 7.41 | CCN(c1nc(C)cc(N2CC=C(c3cccc(F)c3)CC2)n1)c1ccc(N(C)C)cc1Br [Compound 1-12]
26 | 7.10 | CCN(c1nc(C)cc(N2CC=C(c3ccc(F)cc3)CC2)n1)c1ccc(C(C)C)cc1Br [Compound 1-15]
27 | 7.09 | CCN(c1nc(C)cc(N2CC=C(c3ccc(F)cc3)CC2)n1)c1ccc(C(C)C)cc1SC [Compound 1-16]
28 | 7.13 | CCN(c1nc(C)cc(N2CC=C(c3ccc(F)cc3)CC2)n1)c1ccc(N(C)C)cc1Br [Compound 1-17]
29 | 7.30 | CCN(c1nc(C)cc(N2CC=C(c3ccc(F)c(F)c3)CC2)n1)c1ccc(C(C)C)cc1Br [Compound 1-20]
30 | 7.05 | CCN(c1nc(C)cc(N2CC=C(c3ccc(F)c(F)c3)CC2)n1)c1ccc(N(C)C)cc1Br [Compound 1-22]
31 | 7.61 | CCN(c1nc(C)cc(N2CC=C(c3cccc(Cl)c3)CC2)n1)c1ccc(C(C)C)cc1Br [Compound 1-30, 2-[N-(2-bromo-4-isopropylphenyl)-N-ethylamino]-4-[4-(3-chlorophenyl)-1,2,3,6-tetrahydropyridin-1-yl]-6-methylpyrimidine hydrochloride]
32 | 7.25 | CCN(c1nc(C)cc(N2CC=C(c3cccc(Cl)c3)CC2)n1)c1ccc(N(C)C)cc1Br [Compound 1-33]
33 | 7.41 | CCN(c1nc(C)cc(N2CC=C(c3ccc(Cl)cc3)CC2)n1)c1ccc(C(C)C)cc1Br [Compound 1-41]
34 | 7.34 | CCN(c1nc(C)cc(N2CC=C(c3ccc(Cl)cc3)CC2)n1)c1ccc(N(C)C)cc1Br [Compound 1-55]
35 | 7.18 | CCN(c1nc(C)cc(N2CC=C(c3ccc(Cl)cc3)CC2)n1)c1ccc(Br)cc1Br [Compound 1-57]
36 | 7.21 | CCN(c1nc(C)cc(N2CC=C(c3cccc(C(F)(F)F)c3)CC2)n1)c1ccc(N(C)C)cc1Br [Compound 1-67]
37 | 7.18 | CCN(c1nc(C)cc(N2CC=C(c3cccc(C)c3)CC2)n1)c1ccc(C(C)C)cc1Br [Compound 1-73]
38 | 7.20 | CCN(c1nc(C)cc(N2CC=C(c3ccc(C)cc3)CC2)n1)c1ccc(C(C)C)cc1Br [Compound 1-74]
39 | 7.08 | CCN(c1nc(C)cc(N2CC=C(c3ccc(OC)cc3)CC2)n1)c1ccc(C(C)C)cc1Br [Compound 1-77]
40 | 7.05 | CCN(c1nc(C)cc(N2CCC=C(c3ccccc3)C2)n1)c1ccc(C(C)C)cc1Br [Compound 2-01, 2-[N-(2-bromo-4-isopropylphenyl)-N-ethylamino]-4-(5-phenyl-1,2,3,6-tetrahydropyridin-1-yl)-6-methylpyrimidine hydrochloride]
41 | 7.02 | CCN(c1nc(C)cc(N2CCC=C(c3cccc(F)c3)C2)n1)c1ccc(C(C)C)cc1Br [Compound 2-02]
42 | 7.08 | CCN(c1nc(C)cc(N2CCC=C(c3cccc(F)c3)C2)n1)c1ccc(C(C)C)cc1SC [Compound 2-03]
43 | 7.08 | CCN(c1nc(C)cc(N2CCC=C(c3ccc(F)cc3)C2)n1)c1ccc(C(C)C)cc1Br [Compound 2-04]
44 | 7.56 | CCN(c1nc(C)cc(N2CCC=C(c3ccc(F)cc3)C2)n1)c1ccc(C(C)C)cc1SC [Compound 2-05]
45 | 7.02 | CCN(c1nc(C)cc(N2CCC=C(c3ccc(F)cc3)C2)n1)c1ccc(N(C)C)cc1Br [Compound 2-06]
46 | 7.69 | C#CCN(c1nc(C)cc(N2CCC=C(c3ccc(F)cc3)C2)n1)c1ccc(C(C)C)cc1SC [Compound 2-07]
47 | 7.01 | CCN(c1nc(C)cc(N2CCC=C(c3cccc(Cl)c3)C2)n1)c1ccc(C(C)C)cc1SC [Compound 2-09]
48 | 7.08 | CCN(c1nc(C)cc(N2CCC=C(c3cc(F)cc(F)c3)C2)n1)c1ccc(C(C)C)cc1SC [Compound 2-13]
49 | 7.97 | CCN(c1nc(C)cc(N2CCC=C(c3ccccc3C)C2)n1)c1ccc(C(C)C)cc1SC [Compound 2-15, 2-[N-(4-isopropyl-2-methylthiophenyl)-N-ethylamino]-4-[5-(2-methylphenyl)-1,2,3,6-tetrahydropyridin-1-yl]-6-methylpyrimidine hydrochloride]
50 | 7.15 | CCN(c1nc(C)cc(N2CCC=C(c3cccc(C)c3)C2)n1)c1ccc(C(C)C)cc1SC [Compound 2-18]
51 | 7.15 | CCN(c1nc(C)cc(N2CCC=C(c3ccc(C)cc3)C2)n1)c1ccc(C(C)C)cc1SC [Compound 2-19]
